Patent US9023789B2, “Amylin analogs and pharmaceutical compositions thereof” (Novo Nordisk A/S, priority 2012, dated 2015)
Where two headings read alike, the source gives them in different places. Numbered stars: 1 amine (or outer) side, 2 acyl side, 3 side chain; on linkers, the order of the positions; unused ones are H or OH. Bridge positions count the residues as written; N and C are the ends. Side chains are listed from the residue outwards. Peptide text beside a SMILES is read from it. * marks the point of attachment. C20 diacid = O=C(O)CCCCCCCCCCCCCCCCCCC(=O)*; γGlu = O=C(O)[C@H](CCC(=O)[*:2])N[*:1]

Columns and labels:
[1] = ASSAY (IV) determination of solubility; type: physicochemical
Method in brief: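 Polypeptide in water at […] mixed 1:1 with 100 mM buffers of pH 3.0-8.0 (glycylglycine pH 3-5, bistrispropane pH 6-8). Held 18 h at room temperature, then centrifuged; concentration remaining in solution measured by UPLC.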

[2] = target: T1, human calcitonin (a) receptor in BHK570 cells (Homo sapiens, UniProt P30988); assay: ASSAY (II)a functional assay, human calcitonin receptor (CRE luciferase); type: cell-based; details: read-out: hCTR funct. EC50
T1 construct: expressed in transfected cells
T1 sequence (P30988 25-474): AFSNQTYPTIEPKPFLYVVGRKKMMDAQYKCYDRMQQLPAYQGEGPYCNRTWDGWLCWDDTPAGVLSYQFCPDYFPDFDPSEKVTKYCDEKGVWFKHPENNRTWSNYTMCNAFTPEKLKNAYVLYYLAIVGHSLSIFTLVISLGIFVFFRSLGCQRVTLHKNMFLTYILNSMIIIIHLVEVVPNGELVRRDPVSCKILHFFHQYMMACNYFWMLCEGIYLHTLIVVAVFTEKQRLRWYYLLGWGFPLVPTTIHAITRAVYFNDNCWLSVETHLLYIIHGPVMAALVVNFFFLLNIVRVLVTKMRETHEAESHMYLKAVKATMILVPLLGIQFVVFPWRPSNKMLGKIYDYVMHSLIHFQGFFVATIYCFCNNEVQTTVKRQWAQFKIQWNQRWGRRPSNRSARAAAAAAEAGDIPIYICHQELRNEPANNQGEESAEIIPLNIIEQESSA
Method in brief: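 Cells were seeded and cultured overnight, then incubated with standard or sample for 3 h at 37° C in serum-containing medium at pH 7.4. The medium was then swapped for PBS, LucLite was added for 30 min at room temperature, and luminescence was recorded. Cells were BHK with CRE-luc and calcitonin receptor, ± RAMP-3.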

[3] = target: T2, human calcitonin receptor (Homo sapiens, UniProt P30988); assay: ASSAY (VII) binding to the human calcitonin receptor (SPA, 125I-Calcitonin); details: read-out: hCTR bind IC50;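 further: cell membranes (35 ng/µL) combined with SPA beads in 40 µL of pH 7.4 Hepes buffer, 384-well format, signal counted on a TopCounter instrument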
T2 construct: expressed in transfected cells
T2 sequence (P30988 25-474): T1 sequence (P30988 25-474)

[4] = bistrispropane buffer, pH 6.5, read-out: Solubility pH 6.5 Concentration
[5] = bistrispropane buffer, pH 7.5, read-out: Solubility pH 7.5 Concentration
[6] = bistrispropane buffer, pH 6.0, read-out: Solubility pH 6.0 Concentration
[7] = bistrispropane buffer, pH 7.0, read-out: Solubility pH 7.0 Concentration
[8] = bistrispropane buffer, pH 8.0, read-out: Solubility pH 8.0 Concentration
[9] = glycylglycine buffer, pH 3.0, read-out: Solubility pH 3.0 Concentration
[10] = glycylglycine buffer, pH 4.0, read-out: Solubility pH 4.0 Concentration
[11] = glycylglycine buffer, pH 5.0, read-out: Solubility pH 5.0 Concentration

solubility at 18 h [1, 4]	solubility at 18 h [1, 5]	solubility at 18 h [1, 6]	solubility at 18 h [1, 7]	solubility at 18 h [1, 8]	solubility at 18 h [1, 9]	solubility at 18 h [1, 10]	solubility at 18 h [1, 11]	EC50 [2]	IC50 [3]	SMILES
≥ 200 µM	≥ 200 µM	≥ 200 µM	≥ 200 µM	≥ 200 µM	≥ 200 µM	≥ 200 µM	≥ 200 µM	2.54 nM	4.28 nM	CC[C@H](C)[C@H](NC(=O)[C@H](C)NC(=O)CNC(=O)[C@H](Cc1ccccc1)NC(=O)[C@H](CC(N)=O)NC(=O)[C@@H]1CCCN1C(=O)[C@H](CO)NC(=O)[C@H](CO)NC(=O)[C@H](Cc1c[nH]cn1)NC(=O)[C@H](CCCNC(=N)N)NC(=O)[C@H](CC(C)C)NC(=O)[C@H](Cc1ccccc1)NC(=O)[C@H](CCC(=O)O)NC(=O)[C@H](C)NC(=O)[C@H](CC(C)C)NC(=O)[C@H](CCCNC(=N)N)NC(=O)[C@H](CCC(N)=O)NC(=O)[C@@H](NC(=O)[C@H](C)NC(=O)[C@@H]1CSSC[C@H](NC(=O)[C@@H](N)CCCCNC(=O)CC[C@H](NC(=O)CCCCCCCCCCCCCCCCCCC(=O)O)C(=O)O)C(=O)N[C@@H](CC(N)=O)C(=O)N[C@@H]([C@@H](C)O)C(=O)N[C@@H](C)C(=O)N[C@@H]([C@@H](C)O)C(=O)N1)[C@@H](C)O)C(=O)N1CCC[C@H]1C(=O)N[C@@H](CO)C(=O)N[C@@H](CO)C(=O)N[C@H](C(=O)N[C@@H](CC(N)=O)C(=O)N[C@H](C(=O)NCC(=O)N[C@@H](Cc1c[nH]cn1)C(=O)N[C@@H](CCC(=O)O)C(=O)N[C@H](C(=O)N[C@@H](Cc1ccc(O)cc1)C(N)=O)[C@@H](C)O)C(C)C)[C@@H](C)O [Example 107] (H-K([γGlu-C20 diacid])CNTATCATQRLAEFLRHSSPNFGAIPSSTNVGHETY-NH2; disulfide 2-7 (inferred))
≥ 200 µM	≥ 200 µM	≥ 200 µM	≥ 200 µM	≥ 200 µM	≥ 200 µM	≥ 200 µM	≥ 200 µM	2.75 nM	6.62 nM	CC[C@H](C)[C@H](NC(=O)[C@H](C)NC(=O)CNC(=O)[C@H](Cc1ccccc1)NC(=O)[C@H](CC(N)=O)NC(=O)[C@@H]1CCCN1C(=O)[C@H](CO)NC(=O)[C@H](CO)NC(=O)[C@H](Cc1c[nH]cn1)NC(=O)[C@H](CCCNC(=N)N)NC(=O)[C@H](CC(C)C)NC(=O)[C@H](Cc1ccccc1)NC(=O)[C@H](CCC(=O)O)NC(=O)[C@H](C)NC(=O)[C@H](CC(C)C)NC(=O)[C@H](CCCNC(=N)N)NC(=O)[C@H](CCC(N)=O)NC(=O)[C@@H](NC(=O)[C@H](C)NC(=O)[C@@H]1CSSC[C@H](NC(=O)[C@@H](N)CCCCNC(=O)CC[C@H](NC(=O)CCCCCCCCCCCCCCCCCCC(=O)O)C(=O)O)C(=O)N[C@@H](CC(N)=O)C(=O)N[C@@H]([C@@H](C)O)C(=O)N[C@@H](C)C(=O)N[C@@H]([C@@H](C)O)C(=O)N1)[C@@H](C)O)C(=O)N1CCC[C@H]1C(=O)N[C@@H](CO)C(=O)N[C@@H](CO)C(=O)N[C@H](C(=O)N[C@@H](CC(N)=O)C(=O)N[C@H](C(=O)NCC(=O)N[C@@H](CCCNC(=N)N)C(=O)N[C@@H](CCC(=O)O)C(=O)N[C@H](C(=O)N[C@@H](Cc1ccc(O)cc1)C(N)=O)[C@@H](C)O)C(C)C)[C@@H](C)O [Example 108] (H-K([γGlu-C20 diacid])CNTATCATQRLAEFLRHSSPNFGAIPSSTNVGRETY-NH2; disulfide 2-7; N-terminus assumed)
